From US10207991B2, “Isoindoline compositions and methods for treating neurodegenerative disease” (priority 2014, dated 2019)
“Also recorded” adds a separate entry of the source.

System: not listed separately
Assay: Mouse liver microsome (MLM) stability
Assay type: in vitro ADME
Conditions: not given
Description: A first pharmacokinetic study was performed in microsomes of mice mouse liver microsomes, MLM) by a commercial contract research organization. The studies were performed according to Obach, R. S et al. (1997) J. Pharmacol. Exp. Ther., 283: 46-58, which is incorporated herein by reference.

Compound	Mouse liver microsomes, MLM t½ [min]
CC(C)Oc1cc(CC[C@@H](C)N2Cc3ccc(S(C)(=O)=O)cc3C2)ccc1O [compound 69]	75
CC(C)Oc1cc(CCC(C)(C)N2Cc3ccc(S(C)(=O)=O)cc3C2)ccc1O [compound 70]	79
C[C@H](CCc1ccc(Cl)c(Cl)c1)N1Cc2ccc3ccccc3c2C1 [compound 19]	25
C[C@H](CCc1ccc(Cl)c(Cl)c1)N1Cc2ccc(F)cc2C1.Cl [compound 12]	13
COc1ccc2c(c1)CN([C@H](C)CCc1ccc(Cl)c(Cl)c1)C2.Cl [compound 15]	15
CC(C)(CCc1ccc(F)cc1)N1Cc2cc3c(cc2C1)OCO3 [compound 36]	47
COc1cc(CC[C@@H](C)N2Cc3ccc(Cl)cc3C2)ccc1O [compound 1]	11
COc1cc2c(cc1OC)CN([C@@H](C)CCc1ccc(Cl)c(Cl)c1)C2 [compound 20]	43
C[C@H](CCc1ccc(Cl)c(Cl)c1)N1Cc2cc3c(cc2C1)OCO3 [compound 10]	8
C[C@H](CCc1ccc(OC(=O)N(C)C)c(OC(F)(F)F)c1)N1Cc2ccc(F)cc2C1 [compound 43]	5
COc1cc(CCC(C)(C)N2Cc3cccc(C(=O)N4CCOCC4)c3C2)ccc1O [compound 80]	45
COc1cc(CC[C@@H](C)N2Cc3cccc(F)c3C2)ccc1O [compound 8]	16
CC(C)Oc1ccc(CCC(C)(C)N2Cc3ccc(F)cc3C2)cc1OC(C)C [compound 42]	14
CC(C)Oc1cc(CCC(C)(C)N2Cc3cc4c(cc3C2)OCO4)ccc1O [compound 29]	6
CC(C)COc1cc(CCC(C)(C)N2Cc3ccc(S(C)(=O)=O)cc3C2)ccc1O [compound 87]	86
CC(C)COc1cc(CCC(C)(C)N2Cc3cccc(C(=O)N4CCOCC4)c3C2)ccc1O [compound 90]	9
CC(C)(C)Oc1cc(CCC(C)(C)N2Cc3c(F)ccc(F)c3C2)ccc1O [compound 74]	21
CC(C)(CCc1ccc(O)c(OC(F)(F)F)c1)N1Cc2cccc(F)c2C1 [compound 54]	12
COc1cc(CCC(C)(C)N2Cc3cccc(C(=O)N4CCN(C)CC4)c3C2)ccc1O [compound 82]	27
C[C@H](CCc1ccc(Cl)c(Cl)c1)N1Cc2cccc(Cl)c2C1.Cl [compound 16]	12
CC(C)(CCc1ccc(O)c(OC(F)(F)F)c1)N1Cc2cccc(S(C)(=O)=O)c2C1 [compound 67]	39
CC(C)Oc1cc(CC[C@@H](C)N2Cc3cccc(F)c3C2)ccc1O [compound 26]	4
CN(C)C(=O)c1cccc2c1CN(C(C)(C)CCc1ccc(O)c(OC(C)(C)C)c1)C2 [compound 59]	8
COc1cc(CCC(C)(C)N2Cc3cccc(C(=O)N(C)CCN(C)C)c3C2)ccc1O [compound 81]	88

Compound	Mouse liver microsomes, MLM t½ [min]
C[C@H](CCc1ccc(O)c(OC(C)(C)C)c1)N1Cc2ccc(S(C)(=O)=O)cc2C1 [compound 63]	31
COCCN(C)C(=O)c1cccc2c1CN(C(C)(C)CCc1ccc(O)c(OC)c1)C2 [compound 86]	19
CN1CCN(C(=O)c2cccc3c2CN(C(C)(C)CCc2ccc(O)c(OC(F)(F)F)c2)C3)CC1 [compound 93]	5
COc1cc(CC[C@@H](C)N2Cc3cccc(F)c3C2)ccc1OCCO [compound 51]	66
COc1cc(CC[C@@H](C)N2Cc3cc4c(cc3C2)OCO4)ccc1O [compound 6]	20
COc1cc(CCC(C)(C)N2Cc3cccc(C(=O)NCCN(C)C)c3C2)ccc1O [compound 78]	450
C[C@H](CCc1ccc(O)c(OC(F)(F)F)c1)N1Cc2ccc(F)cc2C1 [compound 31]	6
CC(C)Oc1ccc(CC[C@@H](C)N2Cc3cc4c(cc3C2)OCO4)cc1OC(C)C [compound 40]	6
CC(C)(CCc1ccc(F)cc1)N1Cc2ccc(F)cc2C1 [compound 35]	9
C[C@H](CCc1ccc(O)c(OC(F)(F)F)c1)N1Cc2cc3c(cc2C1)OCO3 [compound 24]	5
CN(C)C(=O)c1cccc2c1CN(C(C)(C)CCc1ccc(O)c(OC(F)(F)F)c1)C2 [compound 57]	26
CC(C)(CCc1ccc(O)c(OC(F)(F)F)c1)N1Cc2cccc(C(=O)N3CCOCC3)c2C1 [compound 94]	14
CC(C)COc1cc(CCC(C)(C)N2Cc3cccc(C(=O)N(C)C)c3C2)ccc1O [compound 89]	17
COc1cc(CCC(C)(C)N2Cc3ccc(F)cc3C2)ccc1OC(=O)N(C)C [compound 50]	33
CC(=O)N1CCN(C(=O)c2cccc3c2CN(C(C)(C)CCc2ccc(O)c(OCC(C)C)c2)C3)CC1 [compound 92]	7
COc1cc2c(cc1OC)CN([C@H](C)CCc1ccc(Cl)c(Cl)c1)C2 [compound 11]	61
C[C@H](CCc1ccc(O)c(OC(C)(C)C)c1)N1Cc2cccc(F)c2C1 [60B]	8
COc1cc(CCC(C)(C)N2Cc3cccc(F)c3C2)ccc1O [compound 53]	21
C[C@H](CCc1ccc(Cl)c(Cl)c1)N1Cc2cccc(F)c2C1 [compound 9]	12
Cc1ccc2c(c1)CN([C@H](C)CCc1ccc(Cl)c(Cl)c1)C2 [compound 13]	3
CC(C)COc1cc(CCC(C)(C)N2Cc3cccc(C(=O)N4CCN(C)CC4)c3C2)ccc1O [compound 91]	6
COc1cc2c(cc1OC)CN(C(C)(C)CCc1ccc(F)cc1)C2 [compound 34]	46
C[C@H](CCc1ccc(O)c(OC(C)(C)C)c1)N1Cc2c(F)ccc(F)c2C1 [60A]	5
CC(C)(C)Oc1cc(CCC(C)(C)N2Cc3cccc(S(C)(=O)=O)c3C2)ccc1O [compound 66]	10

Compound	Mouse liver microsomes, MLM t½ [min]
COc1cc(CCC(C)N2Cc3ccc4ccccc4c3C2)ccc1O.Cl (centres unmarked) [compound 17]	10
C[C@H](CCc1ccc(F)cc1)N1Cc2ccc(F)cc2C1 [compound 22]	7
COc1cc(CC[C@@H](C)N2Cc3cc(Cl)c(Cl)cc3C2)ccc1O [compound 3]	21
CC(C)(CCc1ccc(O)c(OC(F)(F)F)c1)N1Cc2c(F)ccc(F)c2C1 [compound 55]	34
C[C@H](CCc1ccc(OC(=O)N(C)C)c(OC(F)(F)F)c1)N1Cc2cccc(F)c2C1 [compound 41]	9
COc1cc(CCC(C)(C)N2Cc3cccc(F)c3C2)ccc1OCCO [compound 44]	29
COc1cc(CCC(C)(C)N2Cc3ccc(F)cc3C2)ccc1OCCO [compound 45]	96
C[C@H](CCc1ccc(Cl)c(Cl)c1)N1Cc2ccc(C(F)(F)F)cc2C1 [compound 4]	40
COc1cc(CC[C@@H](C)N2Cc3cc4c(cc3C2)OCO4)ccc1OCCO [compound 52]	97
COc1cc(CCC(C)(C)N2Cc3cccc(S(C)(=O)=O)c3C2)ccc1O [compound 64]	52
C[C@H](CCc1ccc(Cl)c(Cl)c1)N1Cc2cc(Cl)c(Cl)cc2C1 [compound 5]	53
COc1cc(CC[C@@H](C)N2Cc3cccc(S(C)(=O)=O)c3C2)ccc1O [compound 65]	41
CC(C)(C)Oc1cc(CCC(C)(C)N2Cc3ccc(S(C)(=O)=O)cc3C2)ccc1O [compound 62]	45
C[C@H](CCc1ccc(F)cc1)N1Cc2cc3c(cc2C1)OCO3 [compound 23]	5
CC(C)Oc1cc(CC[C@@H](C)N2Cc3cc4c(cc3C2)OCO4)ccc1O [compound 25]	4
COc1cc(CC[C@@H](C)N2Cc3ccc(C(F)(F)F)cc3C2)ccc1O [compound 2]	28
COC[C@H](CCc1ccc(Cl)c(Cl)c1)N1Cc2ccc(F)cc2C1 [compound 46]	5
CC(C)Oc1cc(CCC(C)(C)N2Cc3cccc(F)c3C2)ccc1O [compound 28]	4
COc1cc(CCC(C)(C)N2Cc3cc4c(cc3C2)OCO4)ccc1OCCO [compound 47]	91
CC(C)Oc1cc(CC[C@@H](C)N2Cc3ccc(F)cc3C2)ccc1O [compound 37]	5
C[C@H](CCc1ccc(F)cc1)N1Cc2cccc(F)c2C1 [compound 21]	7
CC(C)(CCc1ccc(F)cc1)N1Cc2cccc(F)c2C1 [compound 33]	9
CC(C)COc1cc(CCC(C)(C)N2Cc3cccc(F)c3C2)ccc1O [compound 88]	28

System: neurons
Assay: not given
Conditions: 24 hours; cited from earlier work

Compound	nuclear morphology / nuclear intensity compared to vehicle
Fc1ccc(-n2cc(CCCCN3CCC4(CC3)OCc3ccccc34)c3ccccc32)cc1 [Siramesine]	cause significant abnormal nuclear morphology

System: caspase-3 activation in tumor cells
Assay: not given
Conditions: cited from earlier work

Compound	caspase-3 activation
Fc1ccc(-n2cc(CCCCN3CCC4(CC3)OCc3ccccc34)c3ccccc32)cc1 [Siramesine]	activate caspase-3; also recorded: induces caspase-3 activity

System: caspase-3 activation in neurons
Assay: not given
Conditions: cited from earlier work

Compound	caspase-3 activation
Fc1ccc(-n2cc(CCCCN3CCC4(CC3)OCc3ccccc34)c3ccccc32)cc1 [Siramesine]	activate caspase-3
